Measured values from patent US20200352184A1, “Prevention of Postharvest Physiological Deterioration using Sulfur-Donating Compounds” (Apeel Technology, Inc., priority 2017, published 2020).

Assay: Saturation concentration in water
Format: physicochemical
Conditions: standard temperature and pressure stated for sodium thiosulfate
Description: For example, at standard temperature and pressure, water can become saturated with sodium thiosulfate at a concentration of about 700 mg/mL. Accordingly, in some embodiments, the concentration of a solution (e.g., an aqueous solution) containing sodium thiosulfate can be about 700 mg/mL. […] Accordingly, in some embodiments, the concentration of the sodium thiosulfate is between about 400 and about 700 mg/mL (e.g., between about 500 and about 700 mg/mL). In some embodiments, the concentration of the sodium thiosulfate salt is about 100, about 200, about 300, about 400, about 500, about 600, or about 700 mg/mL. In some embodiments, the concentration can be lower than 700 mg/mL.
In some embodiments, a metabisulfite solution (e.g., sodium metabisulfite) solution in water can become saturated at about 300 mg/mL. Accordingly, in some embodiments solutions of sodium metabisulfite are used at a concentration of about 300 mg/mL, about 200 mg/mL, or about 100 mg/mL.

Structure (SMILES) | concentration at which water becomes saturated
O.O.O.O.O.O=S([O-])([O-])=S.[Na+].[Na+] [sodium thiosulfate, sodium thiosulfate pentahydrate] | about 700 mg/mL
O=S([O-])S(=O)(=O)[O-].[Na+].[Na+] [sodium metabisulfite] | about 300 mg/mL
